Data published in patent publication US20260092085A1, “SYNTHETIC TRIPLEX PEPTIDE NUCLEIC ACID-BASED INHIBITORS FOR CANCER THERAPY” (University of Connecticut, priority 2022, published 2026).
{RR} = two arginine residues at the PNA terminus

Columns and labels:
[1] = test system: miR-155; experiment: miR-155 gene expression in U2932 tumor samples after in vivo treatment; parameters: species or system NSG mice; settings: U2932 xenograft, intra-tumoral
Description: FIGS. 22A-D show in vivo gene expression and protein level analysis. (22A) miR-155 gene expression levels in U2932 tumor samples after in vivo treatment with indicated PNAs. Data was normalized with average control U6 (n=4, data represented as mean±standard error mean). ***p<0.001 (22B) Gene expression level of downstream target genes of miR-155: MCL1 in U2932 tumor samples after treatment with total 3 mg kg-1 dose of Scr-γtcPNA-155, PNA-155, γPNA-155 and γtcPNA-155 and normalized with average control GAPDH (n=3, data represented as mean±SEM), unpaired two-tailed t-test was performed for analysis). *p<0.05, **p<0.01 (22C) Representative western blot of Mcl-1 protein and its quantification (n=3 technical replicate) in U2932 tumor samples treated with total 3 mg kg-1 dose of Scr-γtcPNA-155, PNA-155 and γtcPNA-155. Data is represented as mean±SEM and unpaired two-tailed t-test was performed for analysis. *p<0.05. The relative protein levels were determined from the band intensity using ImageJ software and normalized relative to loading control and treatment control. (22D) Gene expression level of tumor suppressor proteins (FOXO3A, CUX1, SOCS1, CSF1R, JARID2, SHIP1, PICALM, PDCD4, BACH1, CASP3) in U2932 tumor samples after treatment with total 3 mg kg-1 dose of Scr-γtcPNA-155, PNA-155, γPNA-155 and γtcPNA-155 and normalized with average control GAPDH (n=3, data represented as mean±SEM, unpaired two-tailed t-test was performed for statistical analysis). *p<0.05, **p<0.01.
RNA and Protein extraction from tumor samples: The mice were injected intra-tumorally with 1 mg kg-1 dose of PNA-155, γtcPNA-155, γPNA-155, Scr-γtcPNA-155 or were untreated. The injections were repeated two additional times after 1 week each. The length, breadth, and depth of the tumors were measured daily using a vernier caliper. The mice were euthanized when the tumor volumes reached 2000 mm^3. The resected tumor sections were finely minced using a sterile blade and suspended in dissociation media (4 ml) comprising of RPMI-1640, 1.2 mg/ml dispase, and 0.5 mg/ml collagenase for 90 mins at 500 rpm at 37° C. The dissociated tumors were washed with buffer saline at 2500 rpm (4 mins) at 4° C. and then suspended in 0.25% trypsin for 4 mins at room temperature. RPMI 1640 media was added to the trypsinized tumor mass, and the cells were passed through a 70 um filter. The cells were centrifuged at 2500 rpm for 4 mins at 4° C. The cell pellet was then suspended in 1×RBC lysis buffer (Sigma) and incubated on ice for 10 mins. PBS was added to the cells and the cells were passed through a 40 um filter. The cells were centrifuged at 2500 rpm for 4 mins at 4° C. The cell pellet was resuspended in 0.5% BSA in PBS. […]

[2] = test system: PBMC cells; experiment: Safety assessment by trypan blue assay in PBMC; type: cell-based; settings: 500-4000 nM, 48 hours
Description: Control is PBS treated PBMC cells. n=3, data represented as mean±standard error mean (SEM).
Safety assessment by trypan blue assay […] blood mononuclear cells (PBMC) (ATCC® PCS-800-011™) were purchased from ATCC (Virginia, USA). The cells were regularly tested for Mycoplasma contamination using MycoAlert™ Mycoplasma detection kit (Lonza). All the cells used in the experiment were passaged less than 2 times. 10,000 PBMC cells were seeded in a 96 well plate. The cells were treated with 500 nM, 1000 nM, 2000 nM and 4000 nM PNA-155 and γtcPNA-155 for 48 hrs in an incubator. The dead cells were examined with trypan blue and further counted using an automated cell counter (Bio-rad).

[3] = test system: miR-155; experiment: miR-155 gene expression by RT-PCR in SUDHL-2 cells; type: cell-based; settings: SUDHL-2, 500 nM, 48 hours
Description: Data represented as mean±standard error mean (SEM). Unpaired two-tailed t-test was used for statistical analysis, **p<0.01. The analysis was performed relative to Scr-γtcPNA-155.
(§1) Similarly, 400,000 SUDHL-2 cells were seeded in a 12 well plate and treated with 500 nM Scr gamma tcPNA-155, PNA-155 and gamma tcPNA-155 for 48 hrs in an incubator (37° C. and 5% CO2). The RNA was extracted and the samples for gene expression were prepared in the same manner as described above.

[4] = test system: miR-155 associated tumor suppressor genes; experiment: Gene expression of miR-155 downstream tumor suppressor genes in SUDHL-2 cells; type: cell-based; settings: SUDHL-2, in comparison to Scr-γtcPNA-155 and PNA-155
Description: Data is normalized with average GAPDH control (n=3), and represented as mean±SEM, **p<0.01. Unpaired two tailed t-test was used for statistical analysis and the analysis was performed relative to Scr-gtcPNA-155.
as §1

Substance | decrease in miR-155 gene expression in tumors [1] | viability of PBMC cell lines [2] | decrease in miR-155 gene expression [3] | upregulation of miR-155 associated tumor suppressor genes [4]
PNA-155: conventional full-length regular PNA (23mer), RR-ACCCCTATCACGATTAGCATTAA-RR, SEQ ID NO: 1 (all peptide nucleic acid (PNA), 5' {RR}, 3' {RR}) [reference compound] | 75% | did not notice a significant reduction in viability |  | 
γtcPNA-155: serine gamma tail-clamp anti-miR-155 PNA, RR-TJJJJ-OOO-ACCCCTATCACGATTAGCATTAA-RR, SEQ ID NO: 3 (all peptide nucleic acid (PNA); serine gamma PNA, tail-clamp TJJJJ via linkers, Arg-Arg at both ends) | 90% | did not notice a significant reduction in viability | 63% | significant upregulation
